Experimental data: US12534436B2, “Disubstituted adamantyl derivative or pharmaceutically acceptable salt thereof, and pharmaceutical composition for suppressing cancer growth comprising same as active ingredient” (ONECUREGEN CO., LTD., priority 2020, dated 2026)

Tested on: HIF-1 (HRE-dependent luciferase reporter)
Experiment: HRE-luciferase assay, screening of HIF-1 inhibitors in HCT116 cells
Format: cell-based, human
Conditions: HCT116 cells stably expressing HRE-dependent luciferase reporter, hypoxic conditions, 12 hours, means of three experiments
Experimental: HCT116 cells stably expressing the HRE-dependent luciferase reporter were treated with the disubstituted adamantyl derivative prepared in the above example under hypoxic conditions for 12 hours before measuring luciferase activity.
In HCT116 cells treated with disubstituted adamantyl derivatives, luciferase activity was investigated using HRE-luciferase assay. The HRE-luciferase reporter assay was performed as previously described using the luciferase assay system (Promega, Madison, WI, USA) according to the manufacturer's instructions (Naik, R. et al. Synthesis and Structure-Activity Relationship of (E)Phenoxyacrylic Amide Derivatives as Hypoxia-Inducible Factor (HIF) 1α Inhibitors. J. Med. Chem. 55, 10564-1057 (2012)). Luciferase activity was measured using a Victor X light luminescence reader (PerkinElmer, Boston, MA, USA).

| SMILES | IC50 [µM] | IC50 (Homo sapiens, HCT-116) [µM] |
| --- | --- | --- |
| COc1ccc(COC(=O)C23CC4CC(CC(C4)C2c2ccc(OCC(=O)Nc4cccc5cccnc45)cc2)C3)cc1OC (stereo not shown) [Compound 14b, 3,4-Dimethoxybenzyl-2-(4-(2-oxo-2-(quinolin-8-ylamino)ethoxy)phenyl) adamantane-1-ylcarboxylate] | > 20 |  |
| COC(=O)c1cccc(NC(=O)COc2ccc(C34CC5CC(CC(C(=O)NCc6ccccc6)(C5)C3)C4)cc2)c1 [Compound 10g, Methyl-3-(2-(4-(3-benzylcarbamoyl-adamantan-1-yl)phenoxy)acetamido)benzoate] |  | 1.3 |
| COc1cc2c(cc1OC)CN(C(=O)C13CC4CC(C1)CC(c1ccc(OCC(=O)N5CCOCC5)cc1)(C4)C3)CC2 [Compound 21a, 2-(4-(3-(6,7-Dimethoxy-1,2,3,4-tetrahydroisoquinoline-2-carbonyl)adamantan-1-yl)phenoxy)-1-morpholinoethanone] |  | 5.43 |
| COC(=O)c1cccc(NC(=O)COc2ccc(C34CC5CC(CC(C(=O)OC)(C5)C3)C4)cc2)c1 [Compound 10a, Methyl-3-(2-(4-(3-((methoxy)carbonyl)adamantane-1-yl)phenoxy)acetamido)benzoate] |  | 18.3 |
| COC(=O)c1cccc(NC(=O)COc2ccc(C34CC5CC(CC(C5)C3C(=O)OCCc3ccc(OC)c(OC)c3)C4)cc2)c1 (stereo not shown) [Compound 10d, Methyl-3-(2-(4-(2-((3,4-dimethoxyphenethoxy)carbonyl)adamantane-1-yl)phenoxy)acetamido)benzoate] |  | > 20 |
| COc1cc2c(cc1OC)CN(C(=O)C13CC4CC(C1)CC(c1ccc(OCC(=O)N5CCN(C)CC5)cc1)(C4)C3)CC2 [Compound 21b, 2-(4-(3-(6,7-Dimethoxy-1,2,3,4-tetrahydroisoquinoline-2-carbonyl)adamantan-1-yl)phenoxy)-1-(4-methylpiperazin-1-yl) ethanone] |  | 9.51 |
| COC(=O)c1cccc(NC(=O)COc2ccc(C34CC5CC(CC(C(=O)NCc6ccco6)(C5)C3)C4)cc2)c1 [Compound 10h, Methyl-3-(2-(4-(3-(furan-2-ylmethylcarbamoyl)-adamantan-1-yl)phenoxy)acetamido)benzoate] |  | 3 |
| COC(=O)c1cccc(NC(=O)COc2ccc(C34CC5CC(CC(C(=O)OCc6ccco6)(C5)C3)C4)cc2)c1 [Compound 10e, Methyl-3-(2-(4-(3-((furan-2-ylmethoxy)carbonyl)adamantane-1-yl)phenoxy)acetamido)benzoate] |  | 6.4 |
| COC(=O)c1cccc(NC(=O)COc2ccc(C34CC5CC(C3)C(C(=O)OCc3ccc(OC)cc3)C(C5)C4)cc2)c1 (stereo not shown) [Compound 10b, Methyl-3-(2-(4-(4-((4-methoxybenzyloxy)carbonyl)adamantane-1-yl)phenoxy)acetamido)benzoate] |  | > 20 |
| CNC(=O)C12CC3CC(C1)CC(c1ccc(OCC(=O)Nc4cccc(C(=O)OC)c4)cc1)(C3)C2 [Compound 10f, Methyl-3-(2-(4-(3-methylcarbamoyl-adamantan-1-yl)phenoxy)acetamido)benzoate] |  | 16.6 |
| COc1ccc(COC(=O)C23CC4CC(CC(C4)C2c2ccc(OCC(=O)Nc4cccc(C(F)(F)F)c4)cc2)C3)cc1OC (stereo not shown) [Compound 14a, 3,4-Dimethoxybenzyl-2-(4-(2-oxo-2-(3-(trifluoromethyl)phenylamino)ethoxy)phenyl) adamantane-1-ylcarboxylae] | > 20 |  |
| COc1ccc(COC(=O)C23CC4CC(CC(C4)C2c2ccc(OCC(=O)N4CCN(C)CC4)cc2)C3)cc1OC (stereo not shown) [Compound 14d, 3,4-Dimethoxybenzyl-2-(4-(2-(4-methylpiperazin-1-yl)-2-oxoethoxy)phenyl) adamantane-1-ylcarboxylate] | 1.67 |  |
| CN1CCN(C(=O)COc2ccc(C34CC5CC(CC(C(=O)NCc6ccco6)(C5)C3)C4)cc2)CC1 [Compound 17a, N-(Furan-2-ylmethyl)-5-(4-(2-(4-methylpiperazin-1-yl)-2-oxoethoxy)phenyl) adamantan-1-yl-carboxamide] | > 20 |  |
| COc1ccc(CN2CCN(C(=O)C34CC5CC(C3)CC(c3ccc(OCC(=O)N6CCN(C)CC6)cc3)(C5)C4)CC2)cc1 [Compound 17c, 2-(4-(5-(4-(4-Methoxybenzyl)piperazine-1-carbonyl)adamantan-1-yl)phenoxy)-1-(4-methylpiperazin-1-yl) ethanone] |  | 9.53 |
| COc1ccc(COC(=O)C23CC4CC(CC(C4)C2c2ccc(OCC(=O)NCc4ccco4)cc2)C3)cc1OC (stereo not shown) [Compound 14c, 3,4-Dimethoxybenzyl-2-(4-(2-(furan-2-ylmethylamino)-2-oxoethoxy)phenyl) adamantane-1-ylcarboxylate] | 22.5 |  |
| COC(=O)c1cccc(NC(=O)COc2ccc(C34CC5CC(C3)C(C(=O)OCc3ccc(OC)c(OC)c3)C(C5)C4)cc2)c1 (stereo not shown) [Compound 10c, Methyl-3-(2-(4-(4-((3,4-dimethoxybenzyloxy)carbonyl)adamantane-1-yl)phenoxy)acetamido)benzoate] |  | 2.37 |
| CN1CCN(C(=O)COc2ccc(C34CC5CC(CC(C(=O)N6CCN(Cc7ccc(C(F)(F)F)cc7)CC6)(C5)C3)C4)cc2)CC1 [Compound 17b, 1-(4-Methylpiperazin-1-yl)-2-(4-(5-(4-(4-(trifluoromethyl)benzyl)piperazine-1-carbonyl)adamantan-1-yl-)phenoxy) ethanone] | 2.19 |  |
| COC(=O)c1cccc(NC(=O)COc2ccc(C34CC5CC(CC(C(=O)Nc6ccccn6)(C5)C3)C4)cc2)c1 [Compound 10i, Methyl-3-(2-(4-(3-(pyridin-2-ylcarbamoyl)-adamantan-1-yl)phenoxy)acetamido)benzoate] |  | 2.4 |
| COC(=O)c1cccc(NC(=O)COc2ccc(C34CC5CC(CC(C(=O)N6CCc7cc(OC)c(OC)cc7C6)(C5)C3)C4)cc2)c1 [Compound 10j, Methyl-3-(2-(4-(3-(6,7-dimethoxy-1,2,3,4-tetrahydroisoquinoline-2-carbonyl)-adamantan-1-yl)phenoxy)acetamido)benzoate] |  | 1.3 |
